Assay results from patent US20230116114A1, “COMPOUNDS AND COMPOSITIONS FOR TREATING CNS DISORDERS” (Blue Oak Pharmaceuticals, Inc., priority 2020, published 2023).
Counter-ions that a name gives are not always drawn.

Test system: mice
Assay: SmartCube in vivo neuropharmacological behavioral assay
Conditions: for minimal effective dose: Mus musculus, ip, 0.25 h, dose having 50% or more total activity in SmartCube, i.p., read-out: MED (minimal effective dose); for AD: antidepressant (percent probability) / AG: analgesic (percent probability) / AP: antipsychotic (percent probability) / AX: anxiolytic (percent probability) / CE: cognitive enhancer (percent probability) / HA: hallucinogenic (percent probability) / MS: mood stabilizer (percent probability) / PS (percent probability) / SD: sedative hypnotic (percent probability) / SE: side effects (percent probability) / UN: uncharacterized CNS activity (percent probability) / XG: anxiogenic (percent probability): SmartCube, i.p. 15 min before test, result at the MED
Method in brief: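 Mice dosed i.p. in NMP (Pharmasolve) 15 min before automated video behavioral testing at several doses (e.g., 0.3-30 mpk). Signatures compared to reference drug classes giving per-class probabilities (0-100); MED is the lowest dose with ≥50% total activity.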

## CCC(C)N1C2CC(C)CC1c1ccccc12 (centres unmarked) [Compound 37, 12-(Butan-2-yl)-10-methyl-12-azatricyclo[6.3.1.0^2,7]dodeca-2,4,6-triene hydrochloride]
  minimal effective dose: 1 to 10 mg/kg
  AD: antidepressant (percent probability): ++ (5% ≤ X < 25%)
  AG: analgesic (percent probability): ++ (5% ≤ X < 25%)
  AP: antipsychotic (percent probability): + (LOQ ≤ X < 5%)
  AX: anxiolytic (percent probability): +++ (25% ≤ X < 50%)
  CE: cognitive enhancer (percent probability): + (LOQ ≤ X < 5%)
  HA: hallucinogenic (percent probability): + (LOQ ≤ X < 5%)
  MS: mood stabilizer (percent probability): + (LOQ ≤ X < 5%)
  PS (percent probability): ++ (5% ≤ X < 25%)
  SD: sedative hypnotic (percent probability): + (LOQ ≤ X < 5%)
  SE: side effects (percent probability): + (LOQ ≤ X < 5%)
  UN: uncharacterized CNS activity (percent probability): + (LOQ ≤ X < 5%)
  XG: anxiogenic (percent probability): + (LOQ ≤ X < 5%)

## CC1CC2c3ccccc3C(C1)N2C1CC1 (centres unmarked) [Compound 38, 12-azatricyclo[6.3.1.0^2,7]dodeca-2,4,6-trien-10-yl}methylium hydrochloride]
  minimal effective dose: 10 to 30 mg/kg
  AD: antidepressant (percent probability): ++++ (50% ≤ X < 100%)
  AG: analgesic (percent probability): + (LOQ ≤ X < 5%)
  AP: antipsychotic (percent probability): + (LOQ ≤ X < 5%)
  AX: anxiolytic (percent probability): + (LOQ ≤ X < 5%)
  CE: cognitive enhancer (percent probability): ++ (5% ≤ X < 25%)
  HA: hallucinogenic (percent probability): ++ (5% ≤ X < 25%)
  MS: mood stabilizer (percent probability): + (LOQ ≤ X < 5%)
  PS (percent probability): + (LOQ ≤ X < 5%)
  SD: sedative hypnotic (percent probability): + (LOQ ≤ X < 5%)
  SE: side effects (percent probability): + (LOQ ≤ X < 5%)
  UN: uncharacterized CNS activity (percent probability): + (LOQ ≤ X < 5%)
  XG: anxiogenic (percent probability): + (LOQ ≤ X < 5%)

## CC(C)N1C2CCC(=O)C1c1ccccc12 (centres unmarked) [Compound 39, hydrochloride]
  minimal effective dose: > 30 mg/kg
  AD: antidepressant (percent probability): + (LOQ ≤ X < 5%)
  AG: analgesic (percent probability): + (LOQ ≤ X < 5%)
  AP: antipsychotic (percent probability): + (LOQ ≤ X < 5%)
  AX: anxiolytic (percent probability): + (LOQ ≤ X < 5%)
  CE: cognitive enhancer (percent probability): + (LOQ ≤ X < 5%)
  HA: hallucinogenic (percent probability): + (LOQ ≤ X < 5%)
  MS: mood stabilizer (percent probability): + (LOQ ≤ X < 5%)
  PS (percent probability): + (LOQ ≤ X < 5%)
  SD: sedative hypnotic (percent probability): + (LOQ ≤ X < 5%)
  SE: side effects (percent probability): + (LOQ ≤ X < 5%)
  UN: uncharacterized CNS activity (percent probability): + (LOQ ≤ X < 5%)
  XG: anxiogenic (percent probability): + (LOQ ≤ X < 5%)

## Fc1cc2c(cc1F)C1CCCC2N1 [Compound 40, 4,5-Difluoro-12-azatricyclo[6.3.1.0^2,7]dodeca-2,4,6-triene hydrochloride]
  minimal effective dose: > 30 mg/kg
  AD: antidepressant (percent probability): ++ (5% ≤ X < 25%)
  AG: analgesic (percent probability): ++ (5% ≤ X < 25%)
  AP: antipsychotic (percent probability): + (LOQ ≤ X < 5%)
  AX: anxiolytic (percent probability): ++ (5% ≤ X < 25%)
  CE: cognitive enhancer (percent probability): + (LOQ ≤ X < 5%)
  HA: hallucinogenic (percent probability): + (LOQ ≤ X < 5%)
  MS: mood stabilizer (percent probability): + (LOQ ≤ X < 5%)
  PS (percent probability): ++ (5% ≤ X < 25%)
  SD: sedative hypnotic (percent probability): + (LOQ ≤ X < 5%)
  SE: side effects (percent probability): + (LOQ ≤ X < 5%)
  UN: uncharacterized CNS activity (percent probability): + (LOQ ≤ X < 5%)
  XG: anxiogenic (percent probability): + (LOQ ≤ X < 5%)

## CC(C)N1C2CCCC1c1cc(F)c(F)cc12 [Compound 41, 4,5-Difluoro-12-(propan-2-yl)-12-azatricyclo[6.3.1.0^2,7]dodeca-2,4,6-triene]
  minimal effective dose: 10 to 30 mg/kg
  AD: antidepressant (percent probability): ++ (5% ≤ X < 25%)
  AG: analgesic (percent probability): ++ (5% ≤ X < 25%)
  AP: antipsychotic (percent probability): ++ (5% ≤ X < 25%)
  AX: anxiolytic (percent probability): ++ (5% ≤ X < 25%)
  CE: cognitive enhancer (percent probability): ++ (5% ≤ X < 25%)
  HA: hallucinogenic (percent probability): + (LOQ ≤ X < 5%)
  MS: mood stabilizer (percent probability): + (LOQ ≤ X < 5%)
  PS (percent probability): + (LOQ ≤ X < 5%)
  SD: sedative hypnotic (percent probability): + (LOQ ≤ X < 5%)
  SE: side effects (percent probability): + (LOQ ≤ X < 5%)
  UN: uncharacterized CNS activity (percent probability): +++ (25% ≤ X < 50%)
  XG: anxiogenic (percent probability): + (LOQ ≤ X < 5%)
